Laboratory results published in US9012655B2, “Antimicrobial/adjuvant compounds and methods” (Denouamed, Inc., priority 2011, dated 2015).
Converted amounts (≈) assume the structure as drawn.

How the values were obtained:
Experiment in all cases: MIC panel of challenge pathogens (CLSI)
Format in all cases: cell-based
Bacillus cereus NCTC6349 = settings: Bacillus cereus NCTC6349
Method: (§1) The inocula for each bacterial strain were prepared by picking 5-10 distinct colonies from the culture plates and suspending them in the appropriate broth as per Clinical and Laboratory Standards Institute (CLSI) guidelines M07-A8, M24-A or M11-A7 as appropriate. The inoculum was resuspended by vigorous shaking on a vortex mixer for 15 s. The turbidity was then adjusted to McFarland standard 0.5 ([…]). The inoculum was further diluted in the appropriate media for MIC tests to give a final inoculum in each well of 2-8×10^5 CFU/ml. MICs were tested in the appropriate broth in accordance with the appropriate CLSI guidelines.
(§2) A stock solution of each compound was prepared at a concentration of 1.28 g/L in DMSO. The stock was further diluted in the appropriate media to give a top starting concentration of 128 mg/L in the assay. 100 μL of the appropriate media, as per CLSI guidelines, was dispensed into each well in columns 2-12. 200 μL of the each compound solution (at 256 mg/L) was dispensed into each well in column 1. 100 μL aliquots were pipetted from column 1 wells and dispensed into column 2 with a multichannel pipette (±2% coefficient of variation) thus diluting two-fold. 100 μL samples were then pipetted from column 2 wells and dispensed into column 3. The process was repeated through to column 10. The final 100 μL of diluted drug from column 10 was then discarded. Row 11 acted as a positive control (no compound, but organisms added), Row 12 acted as a negative control (no compound, and no organisms added).
(§3) 100 μL of the appropriate inoculum suspension in the appropriate media, as per CLSI guidelines, was added to the appropriate wells. […] All plates were incubated in the dark under aerobic or anaerobic conditions at 30-37° C. for 24-48 hours, according to the appropriate CLSI guideline. Plates were read visually 24-48 hours post inoculation. Endpoints of 100% inhibition were determined (CLSI interpretation endpoints following visual examination).
(§4) MIC50, MIC80, and 100% inhibition results are reported below in μg/mL in the following Tables, indicating each compound tested against a given species and strain: […]

[1] = test system: Staphylococcus aureus EUP MRSA004; settings: EUPMRSA004, Staphylococcus aureus EUP MRSA004
Method: as §1, §2, §3, §4

[2] = test system: Enterococcus faecium ATCC700221; settings: Enterococcus faecium ATCC700221
Method: as §1, §2, §3, §4

[3] = test system: Staphylococcus epidermidis NRS7; settings: Staphylococcus epidermidis NRS7
Method: as §1, §2, §3, §4

[4] = test system: Staphylococcus aureus NRS2 (ATCC700698); settings: Staphylococcus aureus NRS2 (ATCC700698)
Method: as §1, §2, §3, §4

[5] = test system: Staphylococcus aureus NRS1 (ATCC700699); settings: Staphylococcus aureus NRS1 (ATCC700699)
Method: as §1, §2, §3, §4

[6] = test system: Staphylococcus aureus NRS382; settings: Staphylococcus aureus NRS382
Method: as §1, §2, §3, §4

[7] = test system: Staphylococcus epidermidis NRS122; settings: Staphylococcus epidermidis NRS122
Method: as §1, §2, §3, §4

[8] = test system: Staphylococcus aureus EUP SAU040; settings: EUPSAU040, Staphylococcus aureus EUP SAU040
Method: as §1, §2, §3, §4

[9] = test system: Staphylococcus aureus AUR59 7005; settings: AUR597005, Staphylococcus aureus AUR59 7005
Method: as §1, §2, §3, §4

[10] = test system: Staphylococcus aureus EUP MRSA002; settings: EUPMRSA002, Staphylococcus aureus EUP MRSA002
Method: as §1, §2, §3, §4

[11] = test system: Staphylococcus aureus AUR58 7005; settings: AUR587005, Staphylococcus aureus AUR58 7005
Method: as §1, §2, §3, §4

[12] = test system: Staphylococcus aureus NRS384; settings: Staphylococcus aureus NRS384
Method: as §1, §2, §3, §4

[13] = test system: Staphylococcus aureus AUR60 7005; settings: AUR607005, Staphylococcus aureus AUR60 7005
Method: as §1, §2, §3, §4

[14] = test system: Staphylococcus aureus ATCC43300; settings: Staphylococcus aureus ATCC43300
Method: as §1, §2, §3, §4

[15] = test system: Enterococcus faecalis ATCC29212; settings: Enterococcus faecalis ATCC29212
Method: as §1, §2, §3, §4

[16] = test system: Staphylococcus aureus AUR131 007035; settings: AUR131007035, Staphylococcus aureus AUR131 007035
Method: as §1, §2, §3, §4

In the case of CCCCc1cccc(-c2cc(-c3nnn[nH]3)sc2Cc2ccc(Cl)cc2)c1 [DNM0606, 5-(4-(3-Butylphenyl)-5-(4-chlorobenzyl)thiophen-2-yl)-1H-tetrazole], the MIC (Bacillus cereus NCTC6349; read-out: 100% inhibition) was 0.5 µg/mL (≈ 1.22 µM), the MIC50 (Bacillus cereus NCTC6349; read-out: MIC50 (50%)) was 0.5 µg/mL (≈ 1.22 µM) and the MIC80 (Bacillus cereus NCTC6349; read-out: MIC80 (80%)) was 0.5 µg/mL (≈ 1.22 µM). The MIC ([1]; read-out: 100% inhibition) was no more than 0.25 µg/mL, the MIC50 ([1]; read-out: MIC50 (50%)) was no more than 0.25 µg/mL and the MIC80 ([1]; read-out: MIC80 (80%)) was no more than 0.25 µg/mL. The MIC ([2]; read-out: 100% inhibition) was 1 µg/mL (≈ 2.45 µM), the MIC50 ([2]; read-out: MIC50 (50%)) was 1 µg/mL (≈ 2.45 µM) and the MIC80 ([2]; read-out: MIC80 (80%)) was 1 µg/mL (≈ 2.45 µM). It also gave an MIC ([3]; read-out: 100% inhibition) of 1 µg/mL (≈ 2.45 µM), an MIC50 ([3]; read-out: MIC50 (50%)) of 0.5 µg/mL (≈ 1.22 µM) and an MIC80 ([3]; read-out: MIC80 (80%)) of 0.5 µg/mL (≈ 1.22 µM). For the same compound, the MIC ([4]; read-out: 100% inhibition) was 0.5 µg/mL (≈ 1.22 µM), the MIC50 ([4]; read-out: MIC50 (50%)) was 0.5 µg/mL (≈ 1.22 µM) and the MIC80 ([4]; read-out: MIC80 (80%)) was 0.5 µg/mL (≈ 1.22 µM). For the same compound, the MIC ([5]; read-out: 100% inhibition) was 0.5 µg/mL (≈ 1.22 µM), the MIC50 ([5]; read-out: MIC50 (50%)) was 0.5 µg/mL (≈ 1.22 µM) and the MIC80 ([5]; read-out: MIC80 (80%)) was 0.5 µg/mL (≈ 1.22 µM). The MIC ([6]; read-out: 100% inhibition) was 0.5 µg/mL (≈ 1.22 µM), the MIC50 ([6]; read-out: MIC50 (50%)) was 0.5 µg/mL (≈ 1.22 µM) and the MIC80 ([6]; read-out: MIC80 (80%)) was 0.5 µg/mL (≈ 1.22 µM). It also gave an MIC ([7]; read-out: 100% inhibition) of 4 µg/mL (≈ 9.78 µM), an MIC50 ([7]; read-out: MIC50 (50%)) of 2 µg/mL (≈ 4.89 µM) and an MIC80 ([7]; read-out: MIC80 (80%)) of 4 µg/mL (≈ 9.78 µM). It also gave an MIC ([8]; read-out: 100% inhibition) of no more than 0.25 µg/mL, an MIC50 ([8]; read-out: MIC50 (50%)) of no more than 0.25 µg/mL and an MIC80 ([8]; read-out: MIC80 (80%)) of no more than 0.25 µg/mL. The MIC ([9]; read-out: 100% inhibition) was 0.5 µg/mL (≈ 1.22 µM), the MIC50 ([9]; read-out: MIC50 (50%)) was 0.5 µg/mL (≈ 1.22 µM) and the MIC80 ([9]; read-out: MIC80 (80%)) was 0.5 µg/mL (≈ 1.22 µM). It also gave an MIC ([10]; read-out: 100% inhibition) of 0.5 µg/mL (≈ 1.22 µM), an MIC50 ([10]; read-out: MIC50 (50%)) of 0.5 µg/mL (≈ 1.22 µM) and an MIC80 ([10]; read-out: MIC80 (80%)) of 0.5 µg/mL (≈ 1.22 µM). For the same compound, the MIC ([11]; read-out: 100% inhibition) was 1 µg/mL (≈ 2.45 µM), the MIC50 ([11]; read-out: MIC50 (50%)) was 0.5 µg/mL (≈ 1.22 µM) and the MIC80 ([11]; read-out: MIC80 (80%)) was 1 µg/mL (≈ 2.45 µM). For the same compound, the MIC ([12]; read-out: 100% inhibition) was no more than 0.25 µg/mL, the MIC50 ([12]; read-out: MIC50 (50%)) was no more than 0.25 µg/mL and the MIC80 ([12]; read-out: MIC80 (80%)) was no more than 0.25 µg/mL. For the same compound, the MIC ([13]; read-out: 100% inhibition) was 0.5 µg/mL (≈ 1.22 µM), the MIC50 ([13]; read-out: MIC50 (50%)) was 0.5 µg/mL (≈ 1.22 µM) and the MIC80 ([13]; read-out: MIC80 (80%)) was 0.5 µg/mL (≈ 1.22 µM). The MIC ([14]; read-out: 100% inhibition) was no more than 0.25 µg/mL, the MIC50 ([14]; read-out: MIC50 (50%)) was no more than 0.25 µg/mL and the MIC80 ([14]; read-out: MIC80 (80%)) was no more than 0.25 µg/mL. The MIC ([15]; read-out: 100% inhibition) was 1 µg/mL (≈ 2.45 µM), the MIC50 ([15]; read-out: MIC50 (50%)) was 1 µg/mL (≈ 2.45 µM) and the MIC80 ([15]; read-out: MIC80 (80%)) was 1 µg/mL (≈ 2.45 µM). The MIC ([16]; read-out: 100% inhibition) was 0.5 µg/mL (≈ 1.22 µM), the MIC50 ([16]; read-out: MIC50 (50%)) was 0.5 µg/mL (≈ 1.22 µM) and the MIC80 ([16]; read-out: MIC80 (80%)) was 0.5 µg/mL (≈ 1.22 µM).
